Assay results from patent publication US20260184675A1, “CHIRAL ISOMERIC SULFITE COMPOUND AND APPLICATION THEREOF” (Chengdu Hanova BioSciences Co., Ltd, priority 2024, published 2026).

Assays:
Type in all cases: in vivo
[1] = system: pest eggs of Tetranychus cinnabarinus; experiment: Effect on hatching of pest eggs of Tetranychus cinnabarinus, leaf disc method; settings: for Hatching rate (%): 7 days after insecticide delivery; for inhibitory effect on the hatching of pest eggs of Tetranychus cinnabarinus (in words): 1 ppm
How it was run: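 Adult female mites laid eggs on 2.0 cm Vicia faba leaf discs for up to 36 h; discs with counted eggs were dipped 10 s in compound solution or water, then kept moist. Hatched eggs were counted 7 days after treatment and control effect was calculated by formula.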

[2] = system: eggs of Aleyrodidae; experiment: Effect on hatching of eggs of Aleyrodidae, leaf disc method; settings: 10 ppm; for Hatching rate (%), Replicate 1 / Hatching rate (%), Replicate 2 / Hatching rate (%), Replicate 3 / Number of hatched larvae 5 days after insecticide delivery, Replicate 1 / Number of hatched larvae 5 days after insecticide delivery, Replicate 2 / Number of hatched larvae 5 days after insecticide delivery, Replicate 3: Aleyrodidae eggs; for Hatching rate (%), Replicate 1 / Hatching rate (%), Replicate 2 / Hatching rate (%), Replicate 3: 5 days after delivery; for Number of hatched larvae 5 days after insecticide delivery, Replicate 1 / Number of hatched larvae 5 days after insecticide delivery, Replicate 2 / Number of hatched larvae 5 days after insecticide delivery, Replicate 3: leaf disc
How it was run: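 Leaf discs carrying Aleyrodidae eggs were first examined microscopically to record a baseline egg count. They were then dipped for 10 seconds in compound solution at 10 ppm or in clear water, taken out, and incubated with humidity maintained. Five days after delivery, the number of hatched larvae was recorded to assess hatching inhibition.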

[3] = system: eggs of Harmonia axyridis; experiment: Effect on hatching of eggs of Harmonia axyridis, egg card immersion; settings: 100 ppm; for Number of hatched larvae 4 days after insecticide delivery, Replicate 1 / Number of hatched larvae 4 days after insecticide delivery, Replicate 2 / Number of hatched larvae 4 days after insecticide delivery, Replicate 3: Harmonia axyridis egg cards, immersed 30 seconds; for Hatching rate (%), Replicate 1 / Hatching rate (%), Replicate 2 / Hatching rate (%), Replicate 3: Harmonia axyridis eggs, 4 days after delivery
How it was run: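 Egg cards (~20 eggs each) dipped 30 s in 100 ppm insecticide, air dried and kept moist at 27° C; 5 cards per treatment, 3 replicates. Hatching assessed 4 days after treatment against pre-treatment egg counts, and control effect calculated by formula.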

SMILES | Hatching rate (%) ([1]; 0.25 mg/L, Replicate 1) | Hatching rate (%) ([1]; 0.25 mg/L, Replicate 2) | Number of hatched larvae 7 days after insecticide delivery ([1]; 0.25 mg/L, Replicate 1) | Number of hatched larvae 7 days after insecticide delivery ([1]; 0.25 mg/L, Replicate 2) | Hatching rate (%) ([1]; 0.5 mg/L, Replicate 1) | Hatching rate (%) ([1]; 0.5 mg/L, Replicate 2) | Number of hatched larvae 7 days after insecticide delivery ([1]; 0.5 mg/L, Replicate 1) | Number of hatched larvae 7 days after insecticide delivery ([1]; 0.5 mg/L, Replicate 2) | Hatching rate (%) ([1]; 1 mg/L, Replicate 1) | Hatching rate (%) ([1]; 1 mg/L, Replicate 2) | Number of hatched larvae 7 days after insecticide delivery ([1]; 1 mg/L, Replicate 1) | Number of hatched larvae 7 days after insecticide delivery ([1]; 1 mg/L, Replicate 2) | inhibitory effect on the hatching of pest eggs of Tetranychus cinnabarinus (in words) [1] | inhibitory activity on the hatching of eggs of Aleyrodidae (in words) [2] | Hatching rate (%), Replicate 1 [2] [%] | Hatching rate (%), Replicate 2 [2] [%] | Hatching rate (%), Replicate 3 [2] [%] | Number of hatched larvae 5 days after insecticide delivery, Replicate 1 [2] | Number of hatched larvae 5 days after insecticide delivery, Replicate 2 [2] | Number of hatched larvae 5 days after insecticide delivery, Replicate 3 [2] | also measured
CC[C@@H](COc1ccc(Cl)cc1Cl)OS(=O)OCCF (stereo partly drawn) [19-(S,R)] | 43.55 | 45.61 | 35 | 31 | 5.13 | 5.26 | 74 | 54 | 0.00 | 0.00 | 60 | 68 | excellent inhibitory effects | strong inhibitory activities | 0.00 | 0.00 | 0.00 | 0 | 0 | 0 | inhibitory activity on the hatching of eggs of Harmonia axyridis (in words) [3]: strong inhibitory activities; Number of hatched larvae 4 days after insecticide delivery, Replicate 1 [3]: 0; Number of hatched larvae 4 days after insecticide delivery, Replicate 2 [3]: 0; Number of hatched larvae 4 days after insecticide delivery, Replicate 3 [3]: 0; Hatching rate (%), Replicate 1 [3]: 0.00%; Hatching rate (%), Replicate 2 [3]: 0.00%; Hatching rate (%), Replicate 3 [3]: 0.00%
CCC(COc1ccc(Cl)cc1Cl)OS(=O)OCCF [19-(S,S)] | 65.52 | 69.86 | 20 | 22 | 20.90 | 21.31 | 53 | 48 | 15.25 | 14.29 | 50 | 54 |  |  |  |  |  |  |  |  | Hatching rate (%), Replicate 1 ([2]; listed as 19-(S, S)): 12.36%; Hatching rate (%), Replicate 2 ([2]; listed as 19-(S, S)): 12.03%; Hatching rate (%), Replicate 3 ([2]; listed as 19-(S, S)): 12.28%; Number of hatched larvae 5 days after insecticide delivery, Replicate 1 ([2]; listed as 19-(S, S)): 11; Number of hatched larvae 5 days after insecticide delivery, Replicate 2 ([2]; listed as 19-(S, S)): 16; Number of hatched larvae 5 days after insecticide delivery, Replicate 3 ([2]; listed as 19-(S, S)): 14; Number of hatched larvae 4 days after insecticide delivery, Replicate 1 ([3]; listed as 19-(S, S)): 13; Number of hatched larvae 4 days after insecticide delivery, Replicate 2 ([3]; listed as 19-(S, S)): 15; Number of hatched larvae 4 days after insecticide delivery, Replicate 3 ([3]; listed as 19-(S, S)): 16; Hatching rate (%), Replicate 1 ([3]; listed as 19-(S, S)): 13.68%; Hatching rate (%), Replicate 2 ([3]; listed as 19-(S, S)): 14.56%; Hatching rate (%), Replicate 3 ([3]; listed as 19-(S, S)): 15.38%
CCC(COS(=O)OCCF)Oc1ccc(Cl)cc1Cl [19′-(R,R)] | 45.07 | 44.90 | 39 | 27 | 5.77 | 4.48 | 49 | 64 | 0.00 | 0.00 | 57 | 69 | excellent inhibitory effects | strong inhibitory activities | 0.00 | 0.00 | 0.00 | 0 | 0 | 0 | inhibitory activity on the hatching of eggs of Harmonia axyridis (in words) [3]: strong inhibitory activities; Number of hatched larvae 4 days after insecticide delivery, Replicate 1 ([3]; listed as 19′-(R, R)): 0; Number of hatched larvae 4 days after insecticide delivery, Replicate 2 ([3]; listed as 19′-(R, R)): 0; Number of hatched larvae 4 days after insecticide delivery, Replicate 3 ([3]; listed as 19′-(R, R)): 0; Hatching rate (%), Replicate 1 ([3]; listed as 19′-(R, R)): 0.00%; Hatching rate (%), Replicate 2 ([3]; listed as 19′-(R, R)): 0.00%; Hatching rate (%), Replicate 3 ([3]; listed as 19′-(R, R)): 0.00%
CC[C@H](COS(=O)OCCF)Oc1ccc(Cl)cc1Cl (stereo partly drawn) [19′-(R,S)] | 70.31 | 71.43 | 19 | 20 | 46.48 | 44.93 | 38 | 38 | 6.00 | 6.45 | 47 | 58 |  |  | 10.32 | 9.40 | 11.49 | 13 | 11 | 10 | Number of hatched larvae 4 days after insecticide delivery, Replicate 1 [3]: 11; Number of hatched larvae 4 days after insecticide delivery, Replicate 2 [3]: 10; Number of hatched larvae 4 days after insecticide delivery, Replicate 3 [3]: 9; Hatching rate (%), Replicate 1 [3]: 10.28%; Hatching rate (%), Replicate 2 [3]: 10.53%; Hatching rate (%), Replicate 3 [3]: 9.78%
